# According to PubChem BioAssay (NCI):
#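 Briefly, cells in 96-well plates were exposed to five compound concentrations for 48 h, and endpoints were estimated by linear interpolation. At the GI50, growth is halved. TGI is the concentration that stops growth completely.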
# Assays:
# Experiment in all cases: growth of human tumour cells (NCI), 48 h
# [1] = tested on: NCI-H23 lung
# [2] = tested on: COLO 205 colon
# [3] = tested on: OVCAR-4 ovarian
# [4] = tested on: OVCAR-5 ovarian
# [5] = tested on: NCI/ADR-RES ovarian
# [6] = tested on: HCC-2998 colon
# [7] = tested on: SK-MEL-28 melanoma
# [8] = tested on: CCRF-CEM leukemia
# [9] = tested on: SK-OV-3 ovarian
# [10] = tested on: EKVX NSCLC
Structure (SMILES),GI50 [1],TGI [1],GI50 [2],TGI [2],GI50 [3],TGI [3],GI50 [4],TGI [4],GI50 [5],TGI [5],GI50 [6],TGI [6],GI50 [7],TGI [7],GI50 [8],TGI [8],GI50 [9],TGI [9],GI50 [10],TGI [10]
COc1cccc(CC(C)=C(c2ccc(OCCN3CCCCC3)cc2)c2ccc(OCCN3CCCCC3)cc2)c1,2130 nM,4.47 µM,1.41 µM,3.73 µM,1.95 µM,4.03 µM,2.02 µM,3.99 µM,2.1 µM,4.34 µM,1.74 µM,3.72 µM,2.12 µM,4.11 µM,1710 nM,4.73 µM,2.2 µM,4.23 µM,2.03 µM,4.48 µM
CC1=C(SCCC(=O)OC(C[Se]C2=C(C)C(=O)c3ccccc3C2=O)C(=O)NCCCCCC(=O)OCc2ccccc2)C(=O)c2ccccc2C1=O (stereo not given),2760 nM,7.84 µM,7.95 µM,22.6 µM,12.3 µM,25.1 µM,5.05 µM,18.7 µM,4.59 µM,18.3 µM,6.52 µM,18.5 µM,11.9 µM,24.7 µM,2820 nM,> 100 µM,7.1 µM,19.7 µM,3.62 µM,17.8 µM
NC(=O)c1cc([N+](=O)[O-])c(Cl)c([N+](=O)[O-])c1Cl,1960 nM,4.25 µM,0.369 µM,1.47 µM,1.77 µM,3.19 µM,2.3 µM,4.59 µM,2.01 µM,4.93 µM,1.82 µM,3.45 µM,1.74 µM,3.15 µM,400 nM,2.38 µM,4.21 µM,14.5 µM,2.08 µM,4.85 µM
COC(=O)c1ccc(CN2C(=O)C(Cl)=C(Nc3cccc(Cl)c3C)C2=O)cc1,10300 nM,> 100 µM,19.7 µM,> 100 µM,26.5 µM,> 100 µM,58.1 µM,> 100 µM,34.8 µM,> 100 µM,32.5 µM,67.5 µM,15.2 µM,> 100 µM,3320 nM,> 100 µM,> 100 µM,> 100 µM,46.8 µM,> 100 µM
C=CCN(CCNS(=O)(=O)c1ccc(C)cc1)S(=O)(=O)c1ccc(C)cc1,–,> 95.5 µM,–,> 60.5 µM,–,> 100 µM,–,> 100 µM,–,> 100 µM,–,> 100 µM,–,> 100 µM,–,> 100 µM,–,> 100 µM,–,96.9 µM
CCC(C)Nc1ccc(N)cc1 (stereo not given),2890 nM,8.89 µM,1.72 µM,3.19 µM,3.18 µM,38.6 µM,13.8 µM,39.8 µM,10.6 µM,28 µM,4.39 µM,16.1 µM,6.37 µM,18.9 µM,3330 nM,17.9 µM,4.98 µM,93.3 µM,3.47 µM,14.8 µM
COc1cc(/C=C/C(=O)/C=C/c2ccc(-n3ccnc3C)cc2)ccc1O,2080 nM,5.5 µM,3.4 µM,12.1 µM,8.87 µM,> 100 µM,14.9 µM,39.3 µM,14.5 µM,> 100 µM,1.75 µM,3.21 µM,2.18 µM,5 µM,4070 nM,> 100 µM,8.14 µM,> 100 µM,21 µM,99 µM
Nc1nc([Se])c2ncn(C3OC(CO)C(O)C3O)c2n1 (stereo not given),5050 nM,> 100 µM,19.3 µM,72.5 µM,27.4 µM,> 100 µM,8.24 µM,> 100 µM,5.57 µM,> 100 µM,17.9 µM,> 100 µM,> 100 µM,> 100 µM,2280 nM,> 100 µM,6.96 µM,> 100 µM,37.6 µM,> 100 µM
